# Measurements taken from PMC12893000, “Structural basis of quinone sensing by the MarR-type repressor MhqR in Staphylococcus aureus” (mBio, 2025).
# Columns and labels:
# [1] = target: T1, SaMhqR (Staphylococcus aureus, UniProt W8U802); experiment: crystal structure (co-crystallized with MHQ, oxidized to MBQ) and ITC; type: binding
# T1 construct: gene ACR79_11795; full-length (144 amino acids), C-terminal His-tag, homodimer
# [2] = target: T1, SaMhqR; experiment: ITC; type: binding
# T1 sequence (W8U802 entry or part of it): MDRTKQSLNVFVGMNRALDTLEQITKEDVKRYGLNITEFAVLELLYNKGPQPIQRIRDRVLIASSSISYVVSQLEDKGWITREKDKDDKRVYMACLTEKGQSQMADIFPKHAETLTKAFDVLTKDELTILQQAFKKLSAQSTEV
SMILES,Kd [1] [µM],Kd [2] [µM]
"CC1=CC(=O)C=CC1=O [MBQ, 2-methylbenzoquinone]",~3,–
"Cc1cc(O)ccc1O [MHQ, 2-methylhydroquinone]",–,~6
